Experimental data from publication PMC10580383, “Development of Melanocortin 4 Receptor Agonists by Exploiting Animal-Derived Macrocyclic, Disulfide-Rich Peptide Scaffolds” (ACS Pharmacology & Translational Science, 2023).
Where a SMILES comes first, the peptide text is derived from it. Bridges are numbered along the chain shown (N, C = ends). [ ]: non-standard residue; d: D form.

What was measured:
mouse MC4R-EGFP = assay: kinetic BRET β-arrestin-2 recruitment assay (MC4R-EGFP / β-arrestin-2-nanoluciferase); type: cell-based; conditions: ligand 10 μM; HEK293 cells, MC4R-EGFP and β-arrestin-2-NLuc; mean ligand-induced BRET from 312 to 2433 s, NDP-α-MSH set as 100; three independent experiments
Method: Considering the physiological relevance of β-arrestins and their critical role in orchestrating MC4R signaling, we measured β-arrestin-2 recruitment in a kinetic bioluminescence resonance energy transfer (BRET) assay. We screened at a ligand concentration of 10 μM in HEK293 cells transiently expressing MC4R coupled to EGFP, and β-arrestin-2 fused to nanoluciferase. […] By contrast, Pr4LP1, Ar3LP1, Ar3LP2, and GoLP1 recruited β-arrestin-2 with greater efficiencies (>130%) than NDP-α-MSH (Figures 4 and S5B,C).
Figure 4 β-Arrestin-2 recruitment of designed MC4R peptide analogues. BRET assay was used to measure the transient interaction of MC4R-EGFP with β-arrestin-2-nanoluciferase (NLuc) in HEK293 cells over time following cell treatment with 10 μM of tachyplesin-1-like peptides (Ta1LPs, green), protegrin-4-like peptides (Pr4LPs, pink), arenicin-3-like peptides (Ar3LPs, orange), and gomesin-like peptides (GoLPs, blue). Relative BRET quantification was determined by calculating the mean value of ligand-induced BRET for each peptide ligand from 312 to 2433 s which was then divided by the mean value of ligand-induced BRET of NDP-α-MSH set as 100. Data are shown as mean ± SEM from three independent experiments.
BRET assay was performed as previously described.[32] Briefly, β-arrestin-2-nano luciferase and mouse MC4R-EGFP were cotransfected in a 1:10 ratio. 16 h post-transfection, 50,000 cells in 100 μL of phenol red-free DMEM with 10% FBS per well were transferred into white clear bottom 96-well plates and incubated overnight. On the day of the assay, cells were incubated for 1 h at 37 °C in phenol red- and serum-free DMEM. Furimazine (diluted 1:50) and peptide ligands (4×) were prepared in Hank’s balanced salt solution (HBSS), respectively. Prior to establishing the baseline and measuring kinetic BRET, furimazine was incubated for 5 min at 37 °C. The ability of peptide ligands to induce β-arrestin-2 recruitment was assessed by measuring light emissions for EGFP (510 nm) and nanoluciferase (460 nm) over 35 min using Flexstation 3 (Molecular Devices, San Jose, USA). The BRET ratio was calculated as emission EGFP (510 nm)/emission nanoluciferase (460 nm). The ligand-induced BRET was calculated by subtracting […].

MC4R over MC1R and MC3R = conditions: Figure S6
human MC4R [1] = biological target: T1, human MC4R (Homo sapiens, UniProt P32245); assay: nanoluciferase complementation assay MC4R-SmBit / β-arrestin-2-LgBit (β-arrestin-2 recruitment); type: cell-based; conditions: for increased potency in β-arrestin-2 recruitment as compared to α-MSH: ratio of EC50 values, nanoluciferase complementation MC4R-SmBit/β-arrestin-2-LgBit; for Emax: read-out: increase in efficacy (Emax) of β-arrestin-2 recruitment compared to α-MSH
T1 construct: expressed in transfected cells; host or cells: HEK293T, transient co-transfection
Method: (§1) Figure 5 Biosensor characterization of Pr4LP1 and Ar3LP1 peptides acting as agonists at MC4R. […] Data are represented as means ± SEM for all experimental replicates and were performed in triplicate from n ≥ 3 independent experiments.
In an attempt to quantify signaling bias using the Black–Leff operational model by calculating ΔΔlog(τ/KA),[27]–[29] we identified a trend for preferred β-arrestin-2 recruitment over Gαs coupling, albeit not significant (data not shown).
(§2) The plasmid constructs used to show interactions between human MC4R and Gαs protein and/or β-arrestin-2 were designed with fused SmBit and LgBit proteins, that upon complementation form the fully functional nanoluciferase enzyme that can produce detectable bioluminescence upon addition of the substrate furimazine. For the Gαs coupling, we used a LgBit fused at the C-terminus of MC4R (MC4R-LgBit) and cotransfected with the Gαs-SmBit construct. For the β-arrestin-2 recruitment assay, we used a C-terminally fused MC4R-SmBit and the β-arrestin-2-LgBit constructs. The cotransfection ratio was 1:10 (Gαs/β-arrestin-2/receptor). Cells were harvested, washed, and resuspended in fresh medium 24 h post-transfection. Approximately 5 × 10^4 cells/well were distributed in precoated 96-well white plates and allowed to adhere overnight. On an experimental day, cells were washed with HBSS and maintained in HBSS (80 μL/well). The furimazine substrate for the luciferase (50×) stock was diluted at 1× with HBSS, and 10 μL/well was added to all assay wells and incubated for 12 min before addition of ligands. Ligand dilutions were prepared at 10× final concentration in HBSS, and 10 μL/well was added to the assay wells. Plates were read 5 min following ligand addition using a ClarioStar equipped with a nanoluc-compatible optic module (BMG Labtech). […] EC50/Emax values were calculated via a nonlinear regression analysis.
Target sequence in this assay (P32245 whole entry): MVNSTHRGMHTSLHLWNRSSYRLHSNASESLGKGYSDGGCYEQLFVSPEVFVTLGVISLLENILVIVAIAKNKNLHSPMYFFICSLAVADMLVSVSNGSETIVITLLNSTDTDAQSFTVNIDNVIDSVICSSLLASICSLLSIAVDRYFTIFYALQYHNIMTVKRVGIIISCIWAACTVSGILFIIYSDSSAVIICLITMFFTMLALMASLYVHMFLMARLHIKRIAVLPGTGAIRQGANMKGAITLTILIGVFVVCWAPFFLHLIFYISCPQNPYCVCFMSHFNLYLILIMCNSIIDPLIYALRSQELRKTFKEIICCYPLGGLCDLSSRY
Target sequence in this assay (P32121 whole entry partner): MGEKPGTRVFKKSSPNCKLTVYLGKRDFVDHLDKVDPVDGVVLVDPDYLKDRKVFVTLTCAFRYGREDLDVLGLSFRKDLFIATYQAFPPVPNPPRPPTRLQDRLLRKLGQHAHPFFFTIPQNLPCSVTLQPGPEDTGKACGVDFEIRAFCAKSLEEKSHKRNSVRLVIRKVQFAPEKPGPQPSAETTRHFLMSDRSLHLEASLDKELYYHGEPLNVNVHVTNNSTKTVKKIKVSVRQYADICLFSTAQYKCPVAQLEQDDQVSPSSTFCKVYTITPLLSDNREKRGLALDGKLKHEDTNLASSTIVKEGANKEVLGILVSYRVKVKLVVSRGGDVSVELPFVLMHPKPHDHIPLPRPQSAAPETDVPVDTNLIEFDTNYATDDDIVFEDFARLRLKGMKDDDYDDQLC

[2] = biological target: T2, mouse melanocortin 4 receptor (MC4R) (Mus musculus, UniProt P56450); assay: cAMP second messenger quantification assay (Cisbio HTRF cAMP Gs kit); type: cell-based; conditions: for Emax: HEK293, read-out: efficacy cAMP Emax ± SD
T2 construct: expressed in transfected cells; host or cells: HEK293 / HEK293T, transient transfection
T2 sequence (P56450 whole entry): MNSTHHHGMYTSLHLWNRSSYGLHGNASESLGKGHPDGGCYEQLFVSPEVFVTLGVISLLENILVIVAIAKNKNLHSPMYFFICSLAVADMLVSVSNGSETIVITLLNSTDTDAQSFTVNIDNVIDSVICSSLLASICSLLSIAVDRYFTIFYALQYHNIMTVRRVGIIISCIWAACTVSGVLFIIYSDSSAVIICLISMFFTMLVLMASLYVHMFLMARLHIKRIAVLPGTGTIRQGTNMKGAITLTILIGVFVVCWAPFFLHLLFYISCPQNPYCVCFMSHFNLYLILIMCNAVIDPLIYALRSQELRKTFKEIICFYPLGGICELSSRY

human MC4R [3] = biological target: T1, human MC4R; assay: nanoluciferase complementation assay MC4R-LgBit / Gαs-SmBit (Gαs coupling); type: cell-based; conditions: for increase in efficacy in recruiting Gαs compared to α-MSH: nanoluciferase complementation MC4R-LgBit/Gαs-SmBit, normalized to α-MSH maximum response
Method: We proceeded with more detailed pharmacological characterization of Pr4LP1 and Ar3LP1 to gain more insights into the signaling pathways that follow MC4R stimulation.
as §1, §2
Target sequence in this assay (P32245 whole entry): as the sequence (P32245 whole entry) above

Structure (SMILES) | BRET efficacy of β-arrestin-2 recruitment relative to NDP-α-MSH (mouse MC4R-EGFP) [%] | selectivity in recruiting β-arrestin-2 (MC4R over MC1R and MC3R) | EC50 (human MC4R [1]) [nM] | increased potency in β-arrestin-2 recruitment as compared to α-MSH (human MC4R [1]) | Emax (human MC4R [1]) [%] | EC50 [2] [nM] | Emax [2] [%] | EC50 (human MC4R [3]) [nM] | increase in efficacy in recruiting Gαs compared to α-MSH (human MC4R [3]) [%]
CC(C)[C@@H]1NC(=O)[C@H](Cc2ccc(O)cc2)NC(=O)[C@H](Cc2c[nH]c3ccccc23)NC(=O)[C@@H](NC(=O)[C@H](Cc2ccccc2)NC(=O)CN)CSSC[C@@H](C(=O)N[C@@H](CC(N)=O)C(N)=O)NC(=O)[C@H](CCCNC(=N)N)NC(=O)[C@H](CCCNC(=N)N)NC(=O)[C@H](Cc2ccc(O)cc2)NC(=O)[C@@H]2CSSC[C@H](NC1=O)C(=O)N1CCC[C@H]1C(=O)N[C@@H](Cc1c[nH]cn1)C(=O)N[C@H](Cc1ccccc1)C(=O)N[C@@H](Cc1c[nH]cn1)C(=O)N[C@@H](Cc1c[nH]c3ccccc13)C(=O)N2 [Ar3LP1] (H-GFCWYVCPH[dF]HWCYRRCN-NH2; disulfide 3-17, 7-13) | > 130 | selective for MC4R over MC1R and MC3R | 25.2 | approximately 20 fold | 82 | 1 | 98 ± 4 | 0.702 | 25
CC(C)C[C@H](NC(=O)[C@H](CCCNC(=N)N)NC(=O)CNC(=O)CNC(=O)[C@@H](N)CCCNC(=N)N)C(=O)N[C@H]1CSSC[C@@H](C(=O)N[C@H](C(=O)NCC(=O)N[C@@H](CCCNC(=N)N)C(N)=O)C(C)C)NC(=O)[C@H](Cc2ccccc2)NC(=O)[C@@H]2CSSC[C@H](NC(=O)[C@H](Cc3ccc(O)cc3)NC1=O)C(=O)N1CCC[C@H]1C(=O)N[C@@H](Cc1c[nH]cn1)C(=O)N[C@H](Cc1ccccc1)C(=O)N[C@@H](Cc1c[nH]cn1)C(=O)N[C@@H](Cc1c[nH]c3ccccc13)C(=O)N2 [Pr4LP1] (H-RGGRLCYCPH[dF]HWCFCVGR-NH2; disulfide 6-16, 8-14) | > 130 | selective for MC4R over MC1R and MC3R | 23.5 | approximately 20 fold | 99 | 3.98 | 96 ± 3 | 0.193 | 8.8
